How the values were obtained:
[1] = tested on: MCF-7 breast cancer cell line; test: Antiproliferation study, MTT cell viability assay; assay type: cell-based; conditions: Homo sapiens, MCF7, 72 h, antiproliferative activity, MTT, 72 h; read-out: IC50 (μM) MCF-7 cell line
Experimental: All assays were performed in triplicate for the determination of mean values reported. Compounds were assayed as the free bases isolated from reaction. The human breast tumour cell line MCF-7 was cultured in Eagles minimum essential medium in a […] atmosphere with 10% fetal bovine serum, 2 mM L-glutamine and 100 μg/mL penicillin/streptomycin. The medium was supplemented with 1% non-essential amino acids. MDA-MB-231 cells were maintained in Dulbecco's Modified Eagle's medium (DMEM), supplemented with 10% (v/v) Fetal bovine serum, 2 mM L-glutamine and 100 μg/mL penicillin/streptomycin (complete medium). Cells were trypsinised and seeded at a density of 2.5×10^4 cells/ml in a 96-well plate and incubated at 37° C., […] atmosphere for 24 h. […] Control wells contained the equivalent volume of the vehicle ethanol (1% v/v). The culture medium was then removed and the cells washed with 100 μL phosphate buffered saline (PBS) and 50 μL MTT added, to reach a final concentration of 1 mg/mL MTT added. Cells were incubated for 2 h in darkness at 37° C. At this point solubilization was begun through the addition of 200 μL DMSO and the cells maintained at room temperature in darkness for 20 min to ensure thorough colour diffusion before reading the absorbance. The absorbance value of control cells (no added compound) was set to 100% cell viability and from this graphs of absorbance versus cell density per well were prepared to assess cell viability and from these, graphs of percentage cell viability versus concentration of subject compound added were drawn.

[2] = Stability by HPLC at three pH values; assay type: physicochemical
Experimental: The stability of β-lactam compounds 4, 8 and 12 was assessed by HPLC at three different pH values. […] The half-lives of 8 and 12 were both greater than 24 hours at all pH values. The stability of three ester prodrug derivatives of 4, i.e. 29, 30 and 31, was also assessed (FIG. 6).

IC50 [1]	SMILES	also measured
0.0468 µM	COc1ccc(C2C(C(O)C=Cc3ccccc3)C(=O)N2c2cc(OC)c(OC)c(OC)c2)cc1O (centres unmarked) [Compound 7, 4-(3-Hydroxy-4-methoxy-phenyl)-3-(1-hydroxy-3-phenyl-allyl)-1-(3,4,5-trimethoxy-phenyl)-azetidin-2-one]	
0.05 µM	COc1ccc(C2C(c3ccc(N)cc3)C(=O)N2c2cc(OC)c(OC)c(OC)c2)cc1 (centres unmarked) [Compound 9, 3-(4-Amino-phenyl)-4-(4-methoxy-phenyl)-1-(3,4,5-trimethoxyphenyl)-azetidin-2-one]	
0.065 µM	COc1ccc(C2C(c3ccccc3)C(=O)N2c2cc(OC)c(OC)c(OC)c2)cc1N (centres unmarked) [Compound 13, 4-(3-Amino-4-methoxy-phenyl)-3-phenyl-1-(3,4,5-trimethoxy-phenyl)-azetidin-2-one]	
0.065 µM	COc1ccc(C2C(c3ccc(F)cc3)C(=O)N2c2cc(OC)c(OC)c(OC)c2)cc1O (centres unmarked) [Compound 16, 3-(4-Fluoro-phenyl)-4-(3-hydroxy-4-methoxy-phenyl)-1-(3,4,5-trimethoxy-phenyl)-azetidin-2-one]	
0.0689 µM	COc1ccc(C2C(c3cccc(O)c3)C(=O)N2c2cc(OC)c(OC)c(OC)c2)cc1 (centres unmarked) [Compound 22, 3-(3-Hydroxy-phenyl)-4-(4-methoxy-phenyl)-1-(3,4,5-trimethoxy-phenyl)-azetidin-2-one]	
0.004 µM	COc1ccc(C2C(c3ccc(N)cc3)C(=O)N2c2cc(OC)c(OC)c(OC)c2)cc1O (centres unmarked) [Compound 23, 3-(4-Amino-phenyl)-4-(3-hydroxy-4-methoxy-phenyl)-1-(3,4,5-trimethoxy-phenyl)-azetidin-2-one]	
0.039 µM	COc1ccc(C2CC(=O)N2c2cc(OC)c(OC)c(OC)c2)cc1 (centres unmarked) [Compound 26, 4-(4-Methoxyphenyl)-1-(3,4,5-trimethoxyphenyl)-azetidin-2-one]	
0.047 µM	COc1ccc(C2C(C)C(=O)N2c2cc(OC)c(OC)c(OC)c2)cc1 (centres unmarked) [Compound 27, 4-(4-Methoxyphenyl)-3-methyl-1-(3,4,5-trimethoxyphenyl)-azetidin-2-one]	
	COc1ccc([C@H]2[C@H](c3ccccc3)C(=O)N2c2cc(OC)c(OC)c(OC)c2)cc1OP(=O)(O)O [Compound 29]	compound remaining after 24 hours ([2]; pH 4): 100%; compound remaining after 24 hours ([2]; pH 7.4): 100%; compound remaining after 24 hours ([2]; pH 9): 100%
	COc1ccc(C2[C@H](c3ccccc3)C(=O)N2c2cc(OC)c(OC)c(OC)c2)cc1OC(C)=O (some centres unmarked) [Compound 30]	compound remaining after 24 hours ([2]; pH 4): 60%; compound remaining after 24 hours ([2]; pH 7.4): 42%; compound remaining after 24 hours ([2]; pH 9): 54%

SMILES	IC50 [1]	also measured
C=C(C)C1C(=O)N(c2cc(OC)c(OC)c(OC)c2)C1c1ccc(OC)c(O)c1 (centres unmarked) [Compound 3, 4-(3-Hydroxy-4-methoxy-phenyl)-3-isopropenyl-1-(3,4,5-trimethoxy-phenyl)-azetidin-2-one]	0.019 µM	
COc1ccc(C2C(C(C)O)C(=O)N2c2cc(OC)c(OC)c(OC)c2)cc1O (centres unmarked) [Compound 6, 3-(1-Hydroxy-ethyl)-4-(3-hydroxy-4-methoxy-phenyl)-1-(3,4,5-trimethoxy-phenyl)-azetidin-2-one]	0.0376 µM	
COc1ccc(C2C(c3ccc(F)cc3)C(=O)N2c2cc(OC)c(OC)c(OC)c2)cc1N (centres unmarked) [Compound 17, 4-(3-Amino-4-methoxy-phenyl)-3-(4-fluoro-phenyl)-1-(3,4,5-trimethoxy-phenyl)-azetidin-2-one]	0.055 µM	
COc1ccc(C2C(c3cccs3)C(=O)N2c2cc(OC)c(OC)c(OC)c2)cc1N (centres unmarked) [Compound 19, 4-(3-Amino-4-methoxy-phenyl)-3-thiophen-2-yl-1-(3,4,5-trimethoxy-phenyl)-azetidin-2-one]	0.041 µM	
COc1ccc(C2C(c3ccc(N)cc3)C(=O)N2c2cc(OC)c(OC)c(OC)c2)cc1N (centres unmarked) [Compound 24, 4-(3-Amino-4-methoxy-phenyl)-3-(4-amino-phenyl)-1-(3,4,5-trimethoxy-phenyl)-azetidin-2-one]	0.03 µM	
COc1ccc(C2C(C)C(=O)N2c2cc(OC)c(OC)c(OC)c2)cc1O (centres unmarked) [Compound 28, 4-(3-Hydroxy-4-methoxyphenyl)-3-methyl-1-(3,4,5-trimethoxyphenyl)-azetidin-2-one]	0.01 µM	

From patent publication US20120309734A1, “COMBRETASTATIN DERIVATIVES AND USES THEREFOR” (priority 2009, published 2012)
